Here are results for four molecules from paper PMC6400998, “Soy Isoflavone Extract Does Not Increase the Intoxicating Effects of Acute Alcohol Ingestion in Human Volunteers” (Frontiers in Pharmacology, 2019).

The nature of one series: clinical. The conditions noted are these: for Tmax / Cmax: human. On the procedure:
(§1) The study was a randomized, single-blinded (the participants were informed that they could receive different doses of alcohol in the two sessions), and crossover clinical trial. Subjects participated in two different experimental sessions separated by at least 3 days. In one session they received a glass of water (240 mL) and 2 h later a single oral dose of alcohol was administered (0.5 g/kg, Vodka Absolut® 40°, Sweden); in the other, they were given four capsules containing a soy extract product with a glass of water (240 mL) and 2 h later the same dose of alcohol.
A commercial soy extract product (Super-Absorbable Soy Isoflavones®, hard gelatin capsules, Life-Extension, United States) was employed. According to the manufacturer each capsule contained 54 mg of total isoflavones (22 mg daidzin-daidzein, 28 mg genistin-genistein, and 4 mg glycitin-glycitein).
Ethanol was determined in blood (DRI® Ethyl Alcohol Assay, Thermo Fisher, Fremont, CA, United States) and breath (Alcotest, Dräger, Germany).

Series [1] concerns healthy male volunteers. In words: Physiological effects (vital signs: SBP, DBP, HR, oral and cutaneous facial temperature) after alcohol with or without soy extract. Conditions: difference with respect to baseline; for FT Emax: cutaneous facial temperature. The method, then: as §1
Non-invasive systolic blood pressure (SBP), diastolic blood pressure (DBP), heart rate (HR), oral and cutaneous facial temperature (OT, FT) were repeatedly recorded at baseline, immediately before capsule administration, and at 2 (immediately before beverage administration), 2.5, 3, 4, 5, 6, 8, and 10 h after first administration. All assessments were carried out with a DinamapTM 8100-T vital signs monitor (Critikon, Tampa, FL, United States). Cutaneous facial temperature was measured at the same time with an additional monitor (Critikon, Tampa, FL, United States).
(§2) Differences with respect to baseline were calculated for vital signs (SBP, DBP, HR, and OT-FT) and subjective effects (VAS, ARCI). Maximum/peak effects (Emax) and the time to reach maximum effects (tmax) were also determined for the previously mentioned variables. The area under the curve of the concentrations from 0 to 10 h (AUC0-10 h) using the trapezoidal rule was calculated for vital signs and subjective effects.
(§3) For the statistical comparison of AUC and Emax a Student’s t-test for paired samples was employed. For tmax a non-parametric Wilcoxon test was used. A repeated measure ANOVA with two factors (treatment and time) was used to compare the time course of effects. When treatment or the treatment × time interaction was statistically significant, multiple Tukey post hoc comparisons were performed at each time point.

Series [2] concerns healthy male volunteers. Briefly: Subjective and adverse effects by visual analog scales (VAS, 100 mm). On the procedure: as §1
Subjective effects were evaluated using a set of visual analog scales (VAS) at baseline (0 h), 2, 2.25, 2.5, 2.75, 3, 3.5, 4, 5, 6, 8, and 10 h after first administration. VAS (100 mm) were labeled with different adjectives marked at opposite ends from “not at all” to “extremely” ([Peiró et al., 2013]; [Farré et al., 2015]; [Papaseit et al., 2016]). Subjects were asked to rate effects of drunkenness, content, nausea, vertigo, dizziness, feeling of face flushing, headache, and breathing difficulty.
as §2, §3

For series [3], the system named is healthy male volunteers. Briefly: Addiction Research Center Inventory (ARCI) 49-item short form questionnaire. It counts as in vivo, human. Conditions: n = 10.
Series [4] is described as follows: Pharmacokinetics of alcohol (ethanol) in plasma. On the procedure:
as §1
Blood samples and ethanol breath concentrations were collected at baseline (before soy extract administration), and at 2 (before ethanol administration), 2.25, 2.5, 2.75, 3, 4, 5, 6, 7, 8, 10, and 24 h after soy extract administration. Ethanol was determined in blood (DRI® Ethyl Alcohol Assay, Thermo Fisher, Fremont, CA, United States) and breath (Alcotest, Dräger, Germany). Daidzein, genistein, and the endogenous metabolite equol were determined by liquid chromatography coupled to tandem mass spectrometry (LC/MS/MS) using a validated method ([Rodríguez-Morató et al., 2015]).
Peak concentration (Cmax), time to reach peak concentrations (Tmax), and area under the concentration-time curve from 0 to 10 h (AUC0-10) from ethanol plasma concentrations over time were determined using Pharmacokinetic Functions for Microsoft Excel (Joel Usansky, Atul Desai, and Diane Tang-Liu, Department of Pharmacokinetics and Drug Metabolism, Allergan, Irvine, CA, United States).

The test system of the next series is male mice. Set-up: method as in Martin et al., 2013. Conditions: ref Martin et al., 2013; cited from earlier work.
Setting [5] is: difference with respect to baseline, AUC 0-10 h, n = 10.
[6] abbreviates: difference with respect to baseline, peak effect, n = 10.
Where [7] appears, read: alcohol 0.5 g/kg oral, 2 h after soy extract (four capsules) or water, Mean ± SD, n = 10.

Turning to `Oc1ccc([C@H]2COc3cc(O)ccc3C2)cc1` [equol], in “clinical” (in vivo, po, time of peak plasma concentration), the Tmax was 24 h.

`CCO` [Alcohol, ethanol]: the “FT Emax” value with healthy male volunteers [1] (peak effect, n = 10) was found to be 1.59 ± 0.67 °C. Also, the “FT Emax” value in the series on healthy male volunteers [1] (peak effect, n = 10, listed as alcohol) is 1.59 °C. The “DBP Emax” value in the series on healthy male volunteers [1] (diastolic blood pressure, peak effect, n = 10) is on record as “–10.5 ± 8.72 mmHg”. Moreover, the “HR Emax” value in the series with healthy male volunteers [1] (heart rate, peak effect, n = 10) is reported as “–1.2 ± 15.26 beats/min”. Further, the “OT Emax” value in the series on healthy male volunteers [1] (oral temperature, peak effect, n = 10) is “–0.23 ± 0.47”. Further, the “SBP Emax” value in the series on healthy male volunteers [1] (systolic blood pressure, peak effect, n = 10) is recorded as “–9.2 ± 11.05 mmHg”. In the series with healthy male volunteers [1] (time course, 2 h after first administration, p < 0.05), the “reduction of DBP at 2 h” value is listed as -2.89. Besides, in the series on healthy male volunteers [1] (time course, 3 h after first administration, p < 0.05), the “reduction of DBP at 3 h” value is on record as -4.5. For the same molecule, the “reduction of DBP at 4 h” value with healthy male volunteers [1] (time course, 4 h after first administration, p < 0.01) is -9.67. In the series on healthy male volunteers [1] (time course, 8 h after first administration, p < 0.05), the “reduction of DBP at 8 h” value is on record as -4.78. In the series on healthy male volunteers [2] (8 h after first administration, p < 0.01), the “VAS score for headache at 8 h” value was 16 mm. For the same molecule, in the series with healthy male volunteers [2] (setting [5]), the “VAS Content AUC0-10” value was 29.91 ± 47.07 and the “VAS Drunkenness AUC0-10” value came out at 25.387 ± 35.1. In the series with healthy male volunteers [2] (setting [6]), the “VAS Breathing difficulty Emax” value was found to be 0 mm, the “VAS Content Emax” value is given as 23.9 ± 26.2 mm, the “VAS Dizziness Emax” value worked out at 10.9 ± 18.3 mm and the “VAS Drunkenness Emax” value stood at 20.8 ± 19.1 mm. Besides, in the series with healthy male volunteers [2] (setting [6]), the “VAS Face flushing Emax” value is 9.6 ± 14.9 mm, the “VAS Headache Emax” value came to 16.2 ± 27.9 mm, the “VAS Nausea Emax” value was 0.8 ± 1.75 mm and the “VAS Vertigo Emax” value is recorded as 2.2 ± 6.9 mm. Also, the “ARCI-MBG AUC0-10” value in the series on healthy male volunteers [3] (euphoria subscale, AUC 0-10 h) is reported as 3.4 ± 3.2. For the same molecule, in the series with healthy male volunteers [3] (euphoria subscale, difference with respect to baseline, peak effect), the “ARCI-MBG Emax” value is given as 2.7 ± 3.3. Further, the “ARCI-LSD Emax” value in the series on healthy male volunteers [3] (first ARCI-LSD line of Table 1 (r36), dysphoria and somatic symptoms subscale, peak effect) came out at 5.2 ± 1.7. Besides, in the series on healthy male volunteers [3] (first ARCI-LSD line of Table 1 (r37), AUC 0-10 h), the “ARCI-LSD AUC0-10” value turned out to be 43.2 ± 8.27. For the same molecule, the “ARCI-BG ARCI-A Emax” value with healthy male volunteers [3] (line printed ARCI-BG ARCI-A (r40), peak effect) is recorded as 1.8 ± 1.686. In addition, the “ARCI-BG ARCI-A AUC0-10” value in the series with healthy male volunteers [3] (line printed ARCI-BG ARCI-A (r41), AUC 0-10 h) was 4.5 ± 4.47. The “ARCI-LSD Emax” value in the series on healthy male volunteers [3] (second line printed ARCI-LSD in Table 1 (r38), peak effect) amounted to 4.6 ± 1.07. Moreover, the “ARCI-LSD AUC0-10” value with healthy male volunteers [3] (second line printed ARCI-LSD in Table 1 (r39), AUC 0-10 h) is 36.7 ± 5.5. For the same molecule, in the series with healthy male volunteers [3] (sedation subscale, AUC 0-10 h), the “ARCI-PCAG AUC0-10” value turned out to be 14.05 ± 14.2. Besides, the “ARCI-PCAG Emax” value in the series with healthy male volunteers [3] (sedation subscale, difference with respect to baseline, peak effect) was 3.4 ± 3.59. Also, the “alcohol concentrations in plasma 10 h after drug administration” value in series [4] (10 h after drug administration) is on record as “undetectable”. In series [4] (setting [7]), the “AUC0-10 of alcohol in plasma” value was 219.67 ± 27.2 ng/mL/h and the “Cmax of alcohol in plasma” value turned out to be 77 ± 22.25 ng/mL.

In the case of `O=c1c(-c2ccc(O)cc2)coc2cc(O)ccc12` [daidzein], in the series “clinical” (after four capsules of soy extract, oral, n = 10), the “time of peak plasma concentration” value is “around 6 h”. Further, the Tmax in the series “clinical” (plasma, oral, 4 capsules, Tmax for the first peak, first of double peaks in plasma after soy extract) was in the range of 2 to 4 h. Besides, in “clinical” (plasma, po, 4 capsules), the Cmax is 1020 ng/mL. For the same molecule, in “clinical” (plasma, po, 4 capsules, time of peak plasma concentration, after four capsules of soy extract, oral, n = 10), the Tmax is 6.1 h. Besides, in the series with male mice, the cocaine-reinforcing effects result is “decreased” and the cue-induced cocaine relapse entry is “reduced”.

With `O=c1c(-c2ccc(O)cc2)coc2cc(O)cc(O)c12` [genistein], the time of peak concentration (Tmax) in “clinical” (in vivo, 4 capsules, Tmax for the first peak, first of double peaks in plasma after soy extract) is 2 to 4 h; in the series “clinical” (in vivo, po, 4 capsules, time of peak plasma concentration, after four capsules of soy extract, oral, n = 10) it was 7.3 h. Moreover, the peak concentration (Cmax) in the series “clinical” (in vivo, po, 4 capsules) amounted to 1040 ng/mL. Besides, the cocaine-reinforcing effects result in the series with male mice is reported as “decreased”. Moreover, in the series on male mice, the cue-induced cocaine relapse result was “not”.
